Bounds are passed on as bounds.

This passage reports Ki and IC50 results from patent publication US11731943B2, “Therapeutic compounds, compositions and methods of use thereof” (priority 2016, dated 2023).

The target of experiment [1] is isolated recombinant JAK1 kinase domain (Homo sapiens (Human), UniProt P23458). Description: JAK1 enzyme assay (Caliper LabChip, Ki). The settings on record: read-out: JAK1 Ki. It counts as biochemical. An outline of the steps: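 Ki derived via Morrison tight-binding model, ATP-competitive correction applied. Read-out: product/total ratio of a 5-carboxyfluorescein-tagged JAK3 peptide separated on Caliper LabChip after phosphorylation by isolated human JAK1 kinase domain (22 °C, 30 min; EDTA quench, 50 mM final).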
Sequence of isolated recombinant JAK1 kinase domain (P23458 875-1153): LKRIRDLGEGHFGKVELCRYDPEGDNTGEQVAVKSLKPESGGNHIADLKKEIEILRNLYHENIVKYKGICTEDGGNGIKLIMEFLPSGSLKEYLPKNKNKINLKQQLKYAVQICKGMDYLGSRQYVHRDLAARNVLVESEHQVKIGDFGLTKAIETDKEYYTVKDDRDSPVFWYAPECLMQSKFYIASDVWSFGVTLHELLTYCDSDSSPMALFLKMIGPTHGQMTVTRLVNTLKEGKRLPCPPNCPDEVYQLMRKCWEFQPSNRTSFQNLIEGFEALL

In experiment [2] the target is isolated recombinant JAK2 kinase domain (Homo sapiens (Human), UniProt O60674). Kind of experiment: JAK2 enzyme assay (Caliper LabChip, Ki). It is filed as biochemical. An outline of the steps: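 Caliper LabChip readout of phosphorylated product as a fraction of total substrate, a fluorescently N-terminally labelled JAK3-derived peptide. Isolated human JAK kinase domains were incubated 30 min at 22 °C before EDTA quench (50 mM final).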
Sequence of isolated recombinant JAK2 kinase domain (O60674 849-1124): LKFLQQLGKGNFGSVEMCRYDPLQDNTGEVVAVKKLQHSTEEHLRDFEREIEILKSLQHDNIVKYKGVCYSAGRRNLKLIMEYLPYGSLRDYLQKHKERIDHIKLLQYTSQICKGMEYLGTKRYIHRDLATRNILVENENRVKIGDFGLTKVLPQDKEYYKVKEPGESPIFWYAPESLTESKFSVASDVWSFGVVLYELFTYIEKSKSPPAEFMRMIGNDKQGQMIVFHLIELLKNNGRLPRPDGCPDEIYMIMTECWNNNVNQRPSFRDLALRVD

The subject of experiment [3] is JAK1-dependent STAT6 phosphorylation downstream of IL-13 stimulation in BEAS-2B human bronchial epithelial cells. Description: JAK1 pathway assay in BEAS-2B cells (IL-13-pSTAT6, MSD). It is filed as cell-based. The settings on record: Homo sapiens, BEAS-2B, BEAS-2B cells, IL-13 stimulation; read-out: IL-13 p-STAT6 BEAS-2B IC50.

The term Ki denotes a measure of affinity in units of concentration, obtained from inhibition or displacement. In general, IC50 refers to the concentration needed to halve the response being measured. For `COC(=O)Nc1nn(C2(CC#N)CCN(Cc3ccc(-n4nccn4)cc3)CC2)cc1C(N)=O` [Example 197, methyl N-[4-carbamoyl-1-[4-(cyanomethyl)-1-[[4-(triazol-2-yl)phenyl]methyl]-4-piperidyl]pyrazol-3-yl]carbamate], the Ki in experiment [1] is 1.2 nM; in experiment [2], 22 nM. The concentration for half-maximal inhibition (IC50) in experiment [3] was 65 nM.

In the case of `COC(=O)Nc1nn(C2(CC#N)CCN(Cc3cc(O)c(-c4ccccc4)cc3F)CC2F)cc1C(N)=O` (stereo not drawn) [Example 208, methyl N-[4-carbamoyl-1-[4-(cyanomethyl)-3-fluoro-1-[(2-fluoro-5-hydroxy-4-phenyl-phenyl)methyl]-4-piperidyl]pyrazol-3-yl]carbamate], the Ki in experiment [1] was 0.17 nM; in experiment [2], 0.21 nM. Further, in experiment [3], the IC50 came out at 28 nM.

`N#CCC1(n2cc(C(N)=O)c(NC(=O)OC3CC3)n2)CCN(Cc2ccc(-c3ccccc3)c(O)c2)CC1` [Example 209, cyclopropyl N-[4-carbamoyl-1-[4-(cyanomethyl)-1-[(3-hydroxy-4-phenyl-phenyl)methyl]-4-piperidyl]pyrazol-3-yl]carbamate]: the Ki in experiment [1] worked out at 0.49 nM; in experiment [2] it was 3.8 nM. In addition, the IC50 in experiment [3] stood at 98 nM.

As for `N#CCC1(n2cc(C(N)=O)c(NC(=O)C3CC3)n2)CCN(Cc2ccc(-c3ccccc3)nc2F)CC1` [Example 188, 1-[4-(cyanomethyl)-1-[(2-fluoro-6-phenyl-3-pyridyl)methyl]-4-piperidyl]-3-(cyclopropanecarbonylamino) pyrazole-4-carboxamide], the results for the inhibition constant Ki in experiment [1] and in experiment [2] were 0.6 nM and 1.4 nM, respectively. Moreover, the half-maximal inhibitory concentration (IC50) in experiment [3] turned out to be 34 nM.

`Cc1ccc(-c2ccc(CN3CCC(CC#N)(n4cc(C(N)=O)c(NC(=O)C5CC5)n4)C(F)C3)cc2)o1` (stereo not drawn) [Example 223, 1-[4-(cyanomethyl)-3-fluoro-1-[[4-(5-methyl-2-furyl)phenyl]methyl]-4-piperidyl]-3-(cyclopropanecarbonylamino) pyrazole-4-carboxamide]: the Ki in experiment [1] is 0.38 nM; in experiment [2], 0.34 nM. Moreover, the IC50 in experiment [3] came to 12 nM.

As to `CS(=O)(=O)Nc1cc(F)cc(CN2CCC(CC#N)(n3cc(C(N)=O)c(NC(=O)C4CC4)n3)CC2)c1` [Example 80], the Ki in experiment [1] turned out to be 1.2 nM; in experiment [2], 3.6 nM. Further, the half-inhibitory concentration (IC50) in experiment [3] is greater than 1000 nM.

Regarding `COC(=O)Nc1nn(C2(CC#N)CCC(N3CC(F)(c4ccccc4)C3)CC2)cc1C(N)=O` (stereo not drawn) [Example 243, methyl N-[4-carbamoyl-1-[1-(cyanomethyl)-4-(3-fluoro-3-phenyl-azetidin-1-yl)cyclohexyl]pyrazol-3-yl]carbamate], the inhibition constant Ki in experiment [1] was 2.7 nM; in experiment [2], 14 nM. Besides, the IC50 in experiment [3] was determined as 100 nM.

On to `CC1(Oc2ccc(OC(F)F)cc2)CN(C2CCC(CC#N)(n3cc(C(N)=O)c(NC(=O)C4CC4)n3)CC2)C1` (stereo not drawn) [Example 291, 1-[1-(cyanomethyl)-4-[3-[4-(difluoromethoxy)phenoxy]-3-methyl-azetidin-1-yl]cyclohexyl]-3-(cyclopropanecarbonylamino) pyrazole-4-carboxamide], for which the Ki worked out at 0.86 nM in experiment [1] and 2.1 nM in experiment [2]. The concentration for half-maximal inhibition (IC50) in experiment [3] turned out to be 54 nM.

Regarding `N#CCC1(n2cc(C(N)=O)c(NC(=O)C3CC3)n2)CCN(Cc2ccc(-n3nccn3)cc2)CC1F` (stereo not drawn) [Example 199, 1-[4-(cyanomethyl)-3-fluoro-1-[[4-(triazol-2-yl)phenyl]methyl]-4-piperidyl]-3-(cyclopropanecarbonylamino) pyrazole-4-carboxamide], the inhibition constant (Ki) in experiment [1] stood at 0.52 nM; in experiment [2] it was 0.55 nM. In experiment [3], the IC50 worked out at 64 nM.

Consider `N#CCC1(n2cc(C(N)=O)c(NC(=O)C3CC3)n2)CCN(Cc2ccc(-c3ncco3)cc2)CC1F` (stereo not drawn) [Example 255, 1-[4-(cyanomethyl)-3-fluoro-1-[(4-oxazol-2-ylphenyl)methyl]-4-piperidyl]-3-(cyclopropanecarbonylamino) pyrazole-4-carboxamide], for which the Ki in experiment [1] came out at 1.2 nM; in experiment [2] it was 0.96 nM. Moreover, in experiment [3], the half-inhibitory concentration (IC50) came out at 70 nM.

For `N#CCC1(n2cc(C(N)=O)c(NC(=O)C3CC3)n2)CCN(Cc2ccc(C3CCCCC3)cc2)CC1F` (stereo not drawn) [Example 271, 1-[4-(cyanomethyl)-1-[(4-cyclohexylphenyl)methyl]-3-fluoro-4-piperidyl]-3-(cyclopropanecarbonylamino) pyrazole-4-carboxamide], the inhibition constant (Ki) in experiment [1] was found to be 2.6 nM; in experiment [2], 15 nM. Also, the IC50 in experiment [3] turned out to be 83 nM.

With `COC(=O)Nc1nn(C2(CC#N)CCN(Cc3c(F)cc(-c4ccccc4)c(O)c3F)CC2F)cc1C(N)=O` (stereo not drawn) [Example 248, Methyl N-[4-carbamoyl-1-[4-(cyanomethyl)-1-[(2,6-difluoro-3-hydroxy-4-phenylphenyl)methyl]-3-fluoropiperidin-4-yl]-1H-pyrazol-3-yl]carbamate], the Ki in experiment [1] turned out to be 0.28 nM; in experiment [2], 0.25 nM. In experiment [3], the IC50 was found to be 30 nM.

As for `N#CCC1(n2cc(C(N)=O)c(NC(=O)C3CC3)n2)CCN(Cc2ccc(-c3ccccc3)c(C#N)c2)CC1` [Example 161, 1-[4-(cyanomethyl)-1-[(3-cyano-4-phenyl-phenyl)methyl]-4-piperidyl]-3-(cyclopropanecarbonylamino) pyrazole-4-carboxamide], the values for the Ki in experiment [1] and in experiment [2] were 5.5 nM and 35.3 nM, respectively. Further, the IC50 in experiment [3] is 1010 nM.

Consider `N#CCC1(n2cc(C(N)=O)c(NC(=O)C3CC3)n2)CCN(Cc2ccccc2C#N)CC1` [Example 64], for which the inhibition constant Ki in experiment [1] turned out to be 7.3 nM; in experiment [2] it was 83.5 nM. Besides, the half-inhibitory concentration (IC50) in experiment [3] is greater than 1000 nM.

In the case of `COC(=O)Nc1nn(C2(CC#N)CCN(Cc3ccc(-c4ccccc4)nc3F)CC2F)cc1C(N)=O` (stereo not drawn) [Example 203, methyl N-[4-carbamoyl-1-[4-(cyanomethyl)-3-fluoro-1-[(2-fluoro-6-phenyl-3-pyridyl)methyl]-4-piperidyl]pyrazol-3-yl]carbamate], the values for the Ki in experiment [1] and in experiment [2] were 0.25 nM and 0.22 nM, respectively. In addition, the IC50 in experiment [3] was determined as 15 nM.

For the molecule `C#CC1CC1C(=O)Nc1nn(C2(CC#N)CCN(Cc3ccc(-c4ccccc4)cc3)CC2F)cc1C(N)=O` (stereo not drawn) [Example 254, 1-[4-(cyanomethyl)-3-fluoro-1-[(4-phenylphenyl)methyl]-4-piperidyl]-3-[(2-ethynylcyclopropanecarbonyl)amino]pyrazole-4-carboxamide], the figures for the Ki in experiment [1] and in experiment [2] were 0.43 nM and 0.82 nM, respectively. In addition, the IC50 in experiment [3] was determined as 43 nM.

With `COc1ccc(-c2ccc(CN3CCC(CC#N)(n4cc(C(N)=O)c(NC(=O)C5CC5)n4)CC3)cc2)cc1` [Example 153, 1-[4-(cyanomethyl)-1-[[4-(4-methoxyphenyl)phenyl]methyl]-4-piperidyl]-3-(cyclopropanecarbonylamino) pyrazole-4-carboxamide], the Ki in experiment [1] came to 1.1 nM; in experiment [2] it was 30.8 nM. The IC50 in experiment [3] was found to be 103 nM.

As for `COC(=O)Nc1nn(C2(CC#N)CCN(Cc3cc(O)cc(F)c3)CC2F)cc1C(N)=O` (stereo not drawn) [Example 293, methyl N-[4-carbamoyl-1-[4-(cyanomethyl)-3-fluoro-1-[(3-fluoro-5-hydroxy-phenyl)methyl]-4-piperidyl]pyrazol-3-yl]carbamate], the figures for the Ki in experiment [1] and in experiment [2] were 0.3 nM and 0.34 nM, respectively. Besides, in experiment [3], the IC50 was found to be 55 nM.

For `C#Cc1ccc(OC2(C)CN(C3CCC(CC#N)(n4cc(C(N)=O)c(NC(=O)C5CC5)n4)CC3)C2)cc1` (stereo not drawn) [Example 294, 1-(1-(Cyanomethyl)-4-(3-(4-ethynylphenoxy)-3-methylazetidin-1-yl)cyclohexyl)-3-(cyclopropanecarboxamido)-1H-pyrazole-4-carboxamide], the Ki was found to be 0.74 nM in experiment [1] and 1.1 nM in experiment [2]. Also, in experiment [3], the IC50 came out at 47 nM.

As to `N#CCC1(n2cc(C(N)=O)c(NC(=O)C3CC3)n2)CCN(Cc2cc(O)c(-c3ccccc3)cc2F)CC1` [Example 191, 1-[4-(cyanomethyl)-1-[(2-fluoro-5-hydroxy-4-phenyl-phenyl)methyl]-4-piperidyl]-3-(cyclopropanecarbonylamino) pyrazole-4-carboxamide], the inhibitory constant (Ki) in experiment [1] turned out to be 0.2 nM; in experiment [2] it was 0.32 nM. The IC50 in experiment [3] was found to be 82 nM.

As for `CC(C)S(=O)(=O)Nc1cccc(CN2CCC(CC#N)(n3cc(C(N)=O)c(NC(=O)C4CC4)n3)CC2)c1` [Example 94], the inhibition constant Ki in experiment [1] was 4.1 nM; in experiment [2], 21.8 nM. In addition, the IC50 in experiment [3] is greater than 1000 nM.

Take `COC(=O)Nc1nn(C2(CC#N)CCN(Cc3cc(O)c(-c4ccccc4)cc3F)CC2)cc1C(N)=O` [Example 206, methyl N-[4-carbamoyl-1-[4-(cyanomethyl)-1-[(2-fluoro-5-hydroxy-4-phenyl-phenyl)methyl]-4-piperidyl]pyrazol-3-yl]carbamate]: the Ki was found to be 0.18 nM in experiment [1] and 0.3 nM in experiment [2]. Also, in experiment [3], the IC50 is 33 nM.

As to `N#CCC1(n2cc(C(N)=O)c(NC(=O)C3CC3)n2)CCC(Nc2ccc(-n3nccn3)cc2)CC1` (stereo not drawn) [Example 288, 1-[1-(cyanomethyl)-4-[4-(triazol-2-yl)anilino]cyclohexyl]-3-(cyclopropanecarbonylamino) pyrazole-4-carboxamide], the Ki in experiment [1] stood at 0.28 nM; in experiment [2] it was 4.4 nM. In addition, the IC50 in experiment [3] turned out to be 41 nM.

Turning to `N#CCC1(n2cc(C(N)=O)c(NC(=O)C3CC3)n2)CCN(Cc2ccc(-c3csc(Cl)c3)c(F)c2)CC1` [Example 141, 1-[1-[[4-(5-chloro-3-thienyl)-3-fluoro-phenyl]methyl]-4-(cyanomethyl)-4-piperidyl]-3-(cyclopropanecarbonylamino) pyrazole-4-carboxamide], the Ki in experiment [1] was 0.8 nM; in experiment [2], 3.4 nM. For the same molecule, the concentration for half-maximal inhibition (IC50) in experiment [3] turned out to be 62 nM.
